# Experimental data taken from patent publication US10131558B1, “Compositions, methods, and/or systems for managing sulfide” (priority 2016, dated 2018).
# “And” between values parts separate entries of the source, which are not always exact repeats. Equal entries are not always repeated.
# Columns and labels:
# [1] = Treatment of groundwater contaminated with BTEX and MtBE; settings: 250 mL groundwater; 1 mL 35% H2O2, plus 1 mL Fe-GLC in the combination; untreated 34 ppb
# [2] = 10 min; 33 mg/l H2O2 (+44 μg/l VTX as total iron in the combination)
# Protocol: This step was seen to minimize the amount of natural oxidation of added sulfide by sulfide-oxidizing bacteria present in the biosolids. Sodium hydrosulfide was added to 35 liters of wastewater to achieve a starting total sulfide concentration of ˜10 mg/l sulfide. The pH was adjusted within the aquarium to a pH of 7.0 using a dilute solution of hydrochloric acid.
# The Odalog was affixed using a ring stand to achieve a one centimeter gap between the intake of the Odalog and the surface of the aquarium. […] Wastewater was pulled from near the bottom of the aquarium using a Watson-Marlow Peristaltic Pump capable of delivering 0.001-190 mls/minute. […] The volume of the line prior to discharge equated to ˜100 milliliters. A delivery spray system was mimicked by drilling small holes (0.35 mm) into 0.25 inch tubing distributed evenly above the aquarium. […] A filtration devise was installed in-line to minimize particle clogging with the intake in the tank above the settled biosolids to aid in this process.
# No catalyst was added along with the peroxide in Treatment 3.
# Testing for total sulfide in solution was conducted prior to beginning treatment at three depths.
# [3] = Treatment of groundwater contaminated with BTEX and MtBE; settings: 250 mL groundwater; 1 mL 35% H2O2, plus 1 mL Fe-GLC in the combination; untreated 159 ppb
# [4] = as above; settings: 250 mL groundwater; 1 mL 35% H2O2, plus 1 mL Fe-GLC in the combination; untreated 27 ppb
# [5] = Treatment of sulfides in municipal wastewater using ferric chelants and hydrogen peroxide
# Protocol: Total sulfides were tested for using Standard Methods 4500-S^2− D with a Hach Chemical Company (of Loveland, Colo.) DR 2000 Spectrophotometer and reagents from Hach specific for this particular test. To keep total sulfides within the range of the test, samples were diluted with distilled water prior to conducting the test as per Hach instructions.
# Tests for total sulfide were conducted after 5, 15, and 30 minutes of contact time on each of the seven liter test jars.
# [6] = Vapor suppression spray test, hydrogen sulfide above test water; settings: no treatment 18
# Protocol: A solution of ferric glucontate treatment was prepared using 2.0 M ferric gluconate solution along with distilled water to achieve a final concentration of ferric gluconate at 5 mg/ml, as ferric iron.
# A five gallon bucket containing five liters of de-ionized water was infused with 10 parts per million of total sulfide using technical grade anhydrous Sodium Hydrosulfide. The pH of the water was then adjusted to a pH of 7.0 using a dilute solution of hydrochloric acid.
# After cleaning the bucket for control testing for each study, five additional liters of de-ionized water was added and the same quantity of sulfide was infused into the fresh water and the pH adjusted to 7.0.
# [7] = Treatment of 2,4-D with hydrogen peroxide alone against hydrogen peroxide/Fe-gluconate; settings: 250 mL; 200 microliters 50% hydrogen peroxide, plus 200 microliters Fe-GLC in the combination; after four hours; untreated 130 ppb
# Protocol: The dissolved sodium bicarbonate increased the alkalinity of the water somewhat, causing the water to mimic a natural water source. Two hundred fifty milliliters of this solution was distributed into three 500 mL Erlenmeyer flasks. […] The flasks were then covered with parafilm and swirled to facilitate mixing of the solution. After four hours a sample from each flask was taken to the pesticide lab at Virginia Tech and analyzed by gas chromatography (GC) for 2,4-D. The findings were as follows: […]
# [8] = Treatment of groundwater contaminated with BTEX and MtBE; settings: 250 mL groundwater; 1 mL 35% H2O2, plus 1 mL Fe-GLC in the combination; untreated 56 ppb
# [9] = as above; settings: 250 mL groundwater; 1 mL 35% H2O2, plus 1 mL Fe-GLC in the combination; untreated 171 ppb
# Fecal Coliform = assay: Disinfecting wastewater, peroxide alone vs Fe-GLC and peroxide; type: cell-based; settings: 20 mg H2O2 (50 microliters 35%), plus 50 microliters Fe-GLC in the combination; after twenty minutes; control 2200
# Description: A sample of wastewater was collected from the influent of the chlorine contact chamber of the York River Wastewater Treatment Plant in Yorktown, Va. The samples were divided equally into three clean 500 milliliter sample containers from the single sample taken. The first sample served as a control and was set aside. […] Each sample was capped and shaken briefly to mix the contents. After twenty minutes, sub-samples were taken from each vessel and pored into fecal coliform sample containers for analysis at the Hampton Roads Sanitary District lab.
# [10] = after 2 days; cited from earlier work
# [11] = SMBSC pilot demonstration, lagoon spray system; settings: Trial 1, samplings T2-T5
# Description: The exemplary system and method was designed to utilize 1.7 million gallons per day of the 35 to 40 million gallons of high strength wastewater within the lagoon as a carrier for treatment chemistry. Flow into the lagoon varied. Influent was mostly high organic strength wastewater. A typical daily flow rate approximated 500,000 gallons.
# The utilized system and method sought to efficiently cover as much of the lagoon surface with treated wastewater containing excess quantities of treatment chemistry as practically possible. For spray nozzles, the system and method utilized 100 series Big Gun sprinklers (available from Nelson Irrigation Corporation of Walla Walla, Wash.) oriented in a pattern to assure maximum coverage of targeted surface area of the lagoon. […] The pressure varied depending on the demand of the spray nozzles and surface coverage demand. Further, the effectiveness relied somewhat on delivery of sufficient volume of treated wastewater containing excess treatment chemistry to the surface of the lagoon to adequately suppress sulfide at or near the surface of the lagoon. […] Treatment chemistry for the returned treated wastewater was dosed to treat sulfide within the uptake wastewater and over dosed with added treatment chemistry to accommodate the expected need for treatment within the surface water of the receiving lagoon. […] This dosage application assumed these ratios for each hour of continuous treatment.
# The method used for this pilot study for dosing was estimated by taking surface and mid-depth samples of the untreated lagoon and testing for sulfide.
# Station D1 referred to a dam where water flowed down through the dam into the remaining run of the retention lagoon.
# [12] = Full scale lagoon treatment system using eductors; settings: across all stations, eductor system, September 2016
# Protocol: Due to concerns about fugitive airborne spray entering the environment and, potentially, drifting onto a nearby public road, SMBSC management requested an underwater eductor system be installed to replace the Nelson spray irrigation system described previously. Therefore, a full scale trial using a commercially available surface chemical application system and method was tested at the SMBSC. The objective of the test was to determine if a system designed to apply oxidation treatment chemicals just below the surface of the large wastewater lagoon at SMBSC was as effective as the spray system that minimized surface mixing. It was surmised that the system would achieve similar results to the spray application approach due to minimal disturbance to lagoon subsurface wastewater. The eductor system slowly spun in a circular pattern similar to the circular pattern of the spray system. The Serfilco eductor system pulled wastewater from the contaminated lagoon using the identical system of treatment used for the Nelson spray system. The only variation was the application mechanism of eduction versus spray. The eduction system relied on the force of the wastewater flowing back into the eductor distribution arms to force the circular motion of the arms distributing oxidation chemicals. All aspects of the system were the same except for the distribution system. […]
# [13] = Treatment of sulfides in municipal wastewater using ferric chelants and ozone; settings: ozone ~13.4 ppm, 4 ppm ferric chelant where used; for sulfide remaining: start 13.70
# Description: The raw wastewater received a dose of 4 ppm of each of the four ferric chelants (mass calculated as chelant) just prior to addition of ozone.
# Ozone addition was accomplished using an ozone generator from Ozone Solutions, Sioux Center, Iowa. The generator was capable of generating up to 2 grams per hour of ozone. Injection of ozone into the wastewater was accomplished using an injection system from Ozone Solutions called the H2O-Mini. The unit is designed to treat from 1.5 to 5.7 liters per minute of wastewater. The unit was set up to deliver 6.7 mg/minute of dissolved ozone (assumed the 80% efficiency of dissolution noted by the manufacturer) to wastewater passing the injection nozzle within the H2O-mini. Each test was designed for maximum wastewater flow through the H2O-mini (5.7 liters/min).
# An objective of the study will be to treat most, but not all, of the sulfide present within the individual test samples in order to determine which treatment was more efficient than the others.
# Samples were taken over twenty minutes of contact time from the recirculation vessel after ozonation. For each of the four ferric chelant studies, chelants were added to the wastewater recirculation vessels just prior to starting the injection of ozone and recirculation of the liquids. The injection of ozone was applied over the prescribed period and sampled as before in the ozone only experiment.
# [14] = system: total heterotrophic bacteria; assay: Disinfection of wastewater using chelated iron compounds; type: cell-based; settings: 30 min, raw average 18,188 CFUs
# Protocol: The clarified supernatant was then pored off of the top of the settled solids within the sample. The supernatant was then mixed and four samples were collected to determine untreated heterotrophic bacteria counts. […] were dissolved in distilled water at 0.4334M. Ferric chloride was added in amounts to achieve saturation of chelant sites on the respective chelants. […] Twenty individual liter samples of supernatant were then decanted from the well-mixed wastewater sample for testing. Four chelated iron products with peroxide were tested at two test concentrations and compared to samples receiving peroxide only and iron chelate only. […] Samples were then decanted to sterile sample containers containing sodium thiosulfate to stop the oxidation process and preserve the sample. Samples were then placed in a refrigerator until all samples were finished. Samples were packaged in a standard cooler with ice packs and sent via overnite delivery to ProChem Labs in Lynchburg, Va. for analysis for total heterotrophic bacteria counts.
# [15] = Full scale lagoon treatment system (spray)
# Description: The system was designed to treat sulfide and recirculate sulfide-free wastewater from the lagoon in a continuous manner and reuse the treated wastewater in such a manner as to gain substantially complete control of hydrogen sulfide escaping to the atmosphere. […] The capping of the lagoon was accomplished by spray applying sulfide-free treated wastewater using a spray application system specifically designed to gain complete or nearly complete coverage of the surface area of the lagoon. Importantly, the spray application system imparted minimal mixing to the untreated surface of the lagoon. Any significant mixing of the surface water within the lagoon could be problematic for hydrogen sulfide release. Gently spray-applying sulfide-free water over the lagoon served to effectively cap the lagoon with minimal mixing, thus preventing gaseous sulfide from escaping to the atmosphere. Further, by assuring that the treated wastewater returning to the lagoon surface contained excess oxidation treatment chemicals, any fugitive sulfide that might have risen through the cap could be mitigated.
# The water proceeding eastward turns north at the end of the lagoon and travelling back westward where it is pumped out of the lagoon at the northwest end.
# This system is primarily driven by a large electrically powered Cornell pump denoted by the “Pump” box in FIG. 5. The pump sits on a 40′ wide elevated dyke that runs down the center of the lagoon. Water is pumped out of the northwest side of the lagoon via a 12″ HDPE “Pump Intake” pipe and flows through the Cornell pump and then down the dyke in the center of the lagoon via an 8″ HDPE main pipe. […] These injection locations are designated by the “1” and “2” circles in FIG. 5. T valves were installed into the 8″ main line, redirecting a portion of the water from the 8″ main pipe out to each of 27 different floats via 2″ HDPE piping. The Nelson F100 series Big Gun spray irrigation heads were mounted on the floats and directly connected to the 2″ HDPE piping. Around 47 PSI of water pressure was constantly maintained to allow sufficient working pressure for each of the 27 spray irrigation heads. The chemical being dosed into the line via the Verdeflex pumps was carefully calculated to ensure sufficient Ferric Gluconate and Hydrogen Peroxide were present in the line to not only ensure substantially complete destruction of all sulfide in the line but to provide a surplus of chemicals for additional treatment upon contact with any sulfides in the pond. […]
# Prior to treatment initiation, samples were taken starting on Mar. […] A quantity of 45 gallons per hour (540 gallons per 12 hour period) of 50% Peroxide and 20 gallons per hour of Ferric Gluconate (240 gallons per 12 hour period) were pumped into the lagoon via the sprayer system.
# [16] = spray system on, April 2016, date by row, same dosage
compound,measurement,setting,value
"OO [H2O2, hydrogen peroxide]",Ethylbenzene after treatment,[1],13.0 ppb
same,H2S Above H2O,[2],17 PPM
same,Total Sulfide 1 CM Depth,[2],8.5 mg/L
same,Total Sulfide 2 CM Depth,[2],9.1 mg/L
same,Total Sulfide 3 CM Depth,[2],9.3 mg/L
same,Xylenes after treatment,[3],67.0 ppb
same,MtBE after treatment,[4],15.7 ppb
same,Percentage of Sulfide Treated After 30 Minutes,"[5]; 1.5:1.0 peroxide to sulfide, Dose 3, 38.7 ppm H2O2 only (control run of the chelant named in the row)",59.0 and 46.5 and 56.3 and 57.0 and 55.5 and 54.7
same,Percentage of Sulfide Treated After 30 Minutes,"[5]; 2.5:1.0 peroxide to sulfide, Dose 3, 105.8 ppm H2O2 only (control run of the chelant named in the row)",69.0 and 69.5 and 67.8 and 66.4 and 44.4 and 69.3 and 70.2
same,"sulfide reduction after 15 minutes, average","[5]; hydrogen peroxide alone, 2.5:1.0 peroxide to sulfide",52%
same,sulfide treatment after 15 minutes,"[5]; peroxide alone, 37.8 ppm level",42.9%
same,H2S reading after 10 minutes,[6]; 1 ml of 15 mg/ml H2O2,6 ppm
same,H2S reading after 10 minutes,[6]; 3 ml of 15 mg/ml H2O2,4 ppm
same,H2S reading after 10 minutes,"[6]; 5 ml of 15 mg/ml H2O2 sprayed on 5 L water with 10 ppm total sulfide, pH 7.0",3 ppm
same,"2,4-D",[7],230 ppb
same,Benzene after treatment,[8],15.1 ppb
same,Toluene after treatment,[9],55.7 ppb
same,Fecal Coliform,Fecal Coliform,53 cfu/100 mL
"O=C([O-])[C@H](O)[C@@H](O)[C@H](O)[C@H](O)CO.[Na+] [Sodium gluconate, sodium gluconate]",readily biodegradable,[10],98%
ferric gluconate [Fe-GLC],"Aqueous Sulfide, location 1S","[11]; same dosage, T1 before treatment 1.35",0 ppm and 0.00 ppm
same,"Gaseous Sulfide downwind at lagoon edge, Station 2",[11],0.00 ppm
same,"Gaseous Sulfide downwind at lagoon edge, Station 3",[11],0.00 ppm
same,sulfide reduction after 15 minutes,[5]; 20 ppm chelant and 105.8 ppm hydrogen peroxide,86.8%
same,average sulfide measurement,[12],2.14 mg/L
same,Overall total percentage of sulfide reduction,[13],90%
same,Overall total percentage of sulfide reduction,[13]; listed as Fe-Gluconate,90%
same,sulfide remaining,[13]; 5 min contact,3.40 ppm
same,sulfide remaining,[13]; 10 min contact,2.80 ppm
same,sulfide remaining,[13]; 20 min contact,1.40 ppm
same,Test 1 CFUs/ml 19.8 ppm H2O2 6 ppm Fe-Chelant,[14],98 CFUs/ml
same,Test 2 CFUs/ml 39.6 ppm H2O2 12 ppm Fe-Chelant,[14],28 CFUs/ml
same,Test 3 CFUs/ml 12 ppm Fe-Chelant,"[14]; chelant alone, no H2O2","22,600 CFUs/ml"
same,average sulfide measurement,"[15]; one month, five sampling locations, spray system, untreated average 1.06 mg/l",0.06 mg/L
same,"Aqueous Sulfide, Station 1 (surface)",[15]; [16],0.00 mg/L
same,"Aqueous Sulfide, Station 4 (surface)",[15]; [16],0.00 mg/L
same,sulfide in wastewater spray upon exiting the spray nozzles,[15]; with proper dosage of oxidation chemicals,0.00 mg/L
